Experimental findings from patent US11891386B2, “Indole compounds and their use” (ARIAGEN, INC., priority 2017, dated 2024) are described below.

In general, half-life refers to the time in which the quantity being followed falls by half. The EC50 is the concentration giving half of the maximal effect.

Series [1] has as its system CYP1A1 in human HepG2 cells. In words: EROD assay (7-ethoxy-resorufin-O-deethylase), human HepG2 cells. On the set-up: key to activity group based on EC50 values, in the order of increasing activity: (1) active; (2) more active; (3) most active. Particulars: for activity in the human EROD assay compared to ARI-001 / ARI-002, in words / EC50: human HepG2 cells; for EC50: EROD assay, 20 hours treatment; for activity group based on EC50 values, in the order of increasing activity: oxadiazole derivatives of ITE. Format: cell-based. As to the method:
(§1) CYP1A1 induction is under the control of the AhR signaling pathway. This Example describes an in vitro assay (7-ethoxy-resorufin-O-deethylase (EROD) assay) that evaluated the AhR modulating activities of the indole compounds described herein. In this assay, the indole compounds were incubated with human HepG2 cells or mouse Hepal-6 cells. The activity of CYP1A1 in the cells was measured by the conversion of substrate 7-ethoxyresorufin, with the readout being a fluorescence signal associated with the conversion product. The EC50 values of the indole compounds as well as the maximum […] induced by them in the assay were determined.
(§2) Human HepG2 cells were obtained from Sigma Aldrich (Catalog 85011430-1VL). Mouse Hepal-6 cells also were obtained from Sigma Aldrich (Catalog 92110305-1V).
(§3) Human HepG2 and Mouse Hepal-6 cells were grown to 60-80% confluency in tissue culture flasks, lifted with non-enzymatic cell dissociation solution (cell stripper), seeded in a 384-well plate at 5,000 cells per well, treated with the test compounds, and incubated for 20 hours overnight at 37° C. The treatment medium was removed and a solution of substrate 7-ethoxyresorufin (ETX) was added to initiate the reaction. The plate was incubated at 37° C. for 30 minutes. The reaction was subsequently terminated by adding tempered methanol. Fluorescent emission was measured at 590 nm with excitation at 530 nm in a FLEXSTATION III instrument (Molecular Devices).

Series [2] concerns CYP1A1 in mouse Hepal-6 cells. The series is described as follows: EROD assay (7-ethoxy-resorufin-O-deethylase), mouse Hepa1-6 cells. To be noted: for EC50: EROD assay, 20 hours treatment. Format: cell-based. The method, then:
as §1, §2, §3

A short description of series [3]: Hepatocyte intrinsic clearance assay, human hepatocytes. The class given is in vitro ADME. Particulars: male, cryopreserved pooled human hepatocytes; Human Hepatocytes, 1 μM test compound. In outline:
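Cryopreserved pooled male human or male CD-1 mouse hepatocytes (1×10^6 cells/mL final) incubated with 1 μM compound at 37° C, sampled from 0 to 120 min, quenched in acetonitrile and analysed by LC-MS in duplicate. t1/2 and CLint come from the ln(% remaining) vs time slope. EH comes from the well-stirred liver model with fu=1.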

For the compound `COC(=O)c1csc(C(=O)c2c[nH]c3ccc(F)cc23)n1` [ARI-066, methyl 2-(5-fluoro-1H-indole-3-carbonyl)thiazole-4-carboxylate], the “activity in the human EROD assay compared to ARI-001 / ARI-002, in words” value in series [1] is reported as “less active”. In series [2], the “activity in the mouse EROD assay, in words” value is “less active”. This compound had a half-life at 1 μM in series [3] of 0.117 h.
On to `CNC(=O)c1csc(C(=O)c2c[nH]c3ccc(F)cc23)n1` [ARI-065, 2-(5-fluoro-1H-indole-3-carbonyl)-N-methylthiazole-4-carboxamide], for which the “activity in the human EROD assay compared to ARI-001 / ARI-002, in words” value in series [1] was “less active”. In series [2], the “activity in the mouse EROD assay, in words” value was “less active”. This compound registered a half-life at 1 μM in series [3] of 1.52 h.
`CCC(=O)c1csc(C(=O)c2c[nH]c3cccc(F)c23)n1` [ARI-142, 1-(2-(4-fluoro-1H-indole-3-carbonyl)thiazol-4-yl)propan-1-one]: in series [1], the EC50 turned out to be 64.8 nM and the “activity in the human EROD assay compared to ARI-001 / ARI-002, in words” value is on record as “less active than ARI-002”. Also, in series [2], the response was half-maximal at 12.8 nM (EC50). Moreover, the half-life at 1 μM in series [3] is 1.43 h.
Regarding `Nc1nnc(-c2csc(C(=O)c3c[nH]c4c(F)cccc34)n2)o1` [ARI-118, (4-(5-amino-1,3,4-oxadiazol-2-yl)thiazol-2-yl)(7-fluoro-1H-indol-3-yl)methanone], in series [1] (human EROD assay), the “times more active than ARI-001” value is given as “about 930 times”; the “times more active than ARI-002” value is “about 13 times”; the “activity group based on EC50 values, in the order of increasing activity” value (“activity group based … of increasing activity” below) is on record as “most active”. The “activity in the human EROD assay compared to ARI-001 / ARI-002, in words” value in series [1] is reported as “significantly more (about 4 to 900 times more) active than ARI-001”. The “activity in the mouse EROD assay, in words” value in series [2] is listed as “most active among the tested oxadiazole compounds”. In series [3], this compound displayed a half-life at 1 μM of 15.4 h.
For the compound `CCC(=O)c1csc(C(=O)c2c[nH]c3cc(F)c(F)cc23)n1` [ARI-149, 1-(2-(5,6-difluoro-1H-indole-3-carbonyl)thiazol-4-yl)propan-1-one], the EC50 came to 19.2 nM in series [1] and 0.6 nM in series [2]. In addition, the half-life at 1 μM in series [3] turned out to be 2.2 h.
In the same order, the values of `COC(=O)c1csc(C(=O)c2c[nH]c3ccccc23)n1` [ARI-001, ITE] are 28.9 nM, 64 nM and 0.13 h.
In the same order, the values of `CCC(=O)c1csc(C(=O)c2c[nH]c3ccc(F)cc23)n1` [ARI-087, 1-(2-(5-fluoro-1H-indole-3-carbonyl)thiazol-4-yl)propan-1-one] are 34.2 nM, 5.8 nM and 1.91 h.
In the case of `CNC(=O)c1csc(C(=O)c2c[nH]c3ccccc23)n1` [ARI-004], the “activity in the human EROD assay compared to ARI-001 / ARI-002, in words” value in series [1] is “less active”. Moreover, the “activity in the mouse EROD assay, in words” value in series [2] is recorded as “less active”. This compound also yielded a half-life at 1 μM in series [3] of 0.712 h.
As to `NCc1nnc(-c2csc(C(=O)c3c[nH]c4c(F)cccc34)n2)o1` [ARI-145, (4-(5-(aminomethyl)-1,3,4-oxadiazol-2-yl)thiazol-2-yl)(7-fluoro-1H-indol-3-yl)methanone], in series [1] (human EROD assay), the “activity group based … of increasing activity” value was “more active”. For the same compound, the “activity in the human EROD assay compared to ARI-001 / ARI-002, in words” value in series [1] was “significantly more (about 4 to 900 times more) active than ARI-001”. The “activity in the mouse EROD assay, in words” value in series [2] is “most active among the tested oxadiazole compounds”. This compound yielded a half-life at 1 μM in series [3] of 2.83 h.
On to `CCC(=O)c1csc(C(=O)c2c[nH]c3ccc(Cl)cc23)n1` [ARI-067, 1-(2-(5-chloro-1H-indole-3-carbonyl)thiazol-4-yl)propan-1-one], for which the “activity in the human EROD assay compared to ARI-001 / ARI-002, in words” value in series [1] is reported as “less active”. Moreover, the “activity in the mouse EROD assay, in words” value in series [2] is listed as “less active”. The compound further displayed a half-life at 1 μM in series [3] of 5 h.
Take `CCC(=O)c1csc(C(=O)c2c[nH]c3cc(F)ccc23)n1` [ARI-143, 1-(2-(6-fluoro-1H-indole-3-carbonyl)thiazol-4-yl)propan-1-one]: the EC50 in series [1] was determined as 4.2 nM; in series [2], 2.3 nM. For the same compound, in series [3], the half-life at 1 μM turned out to be 2.57 h.
Turning to `Nc1nnc(-c2csc(C(=O)c3c[nH]c4cc(Cl)c(Cl)cc34)n2)o1` [ARI-120, (4-(5-amino-1,3,4-oxadiazol-2-yl)thiazol-2-yl)(5,6-dichloro-1H-indol-3-yl)methanone], the “activity group based … of increasing activity” value in series [1] (human EROD assay) is “most active”. Moreover, in series [1], the “activity in the human EROD assay compared to ARI-001 / ARI-002, in words” value is “significantly more (about 4 to 900 times more) active than ARI-001”. Also, the “activity in the mouse EROD assay, in words” value in series [2] is on record as “most active among the tested oxadiazole compounds”. In addition, the half-life at 1 μM in series [3] is 15.3 h.
As for `COC(=O)c1csc(C(=O)c2c[nH]c3ccc(Cl)cc23)n1` [ARI-055, methyl 2-(5-chloro-1H-indole-3-carbonyl)thiazole-4-carboxylate], the “activity in the human EROD assay compared to ARI-001 / ARI-002, in words” value in series [1] is “less active”. Further, the “activity in the mouse EROD assay, in words” value in series [2] is listed as “less active”. This compound also had a half-life at 1 μM in series [3] of 1.12 h.
